The values below come from patent publication US20240190880A1 (THE REGENTS OF THE UNIVERSITY OF MICHIGAN, priority 2021, published 2024).

Usually DC50 stands for the midpoint of the concentration-degradation curve.

Bounds are passed on as bounds.

The target of one test is T1, ER (Homo sapiens, UniProt P03372).
T1 construct: host or cells: T47D and MCF7 human breast cancer cells
T1 sequence (P03372 1-595): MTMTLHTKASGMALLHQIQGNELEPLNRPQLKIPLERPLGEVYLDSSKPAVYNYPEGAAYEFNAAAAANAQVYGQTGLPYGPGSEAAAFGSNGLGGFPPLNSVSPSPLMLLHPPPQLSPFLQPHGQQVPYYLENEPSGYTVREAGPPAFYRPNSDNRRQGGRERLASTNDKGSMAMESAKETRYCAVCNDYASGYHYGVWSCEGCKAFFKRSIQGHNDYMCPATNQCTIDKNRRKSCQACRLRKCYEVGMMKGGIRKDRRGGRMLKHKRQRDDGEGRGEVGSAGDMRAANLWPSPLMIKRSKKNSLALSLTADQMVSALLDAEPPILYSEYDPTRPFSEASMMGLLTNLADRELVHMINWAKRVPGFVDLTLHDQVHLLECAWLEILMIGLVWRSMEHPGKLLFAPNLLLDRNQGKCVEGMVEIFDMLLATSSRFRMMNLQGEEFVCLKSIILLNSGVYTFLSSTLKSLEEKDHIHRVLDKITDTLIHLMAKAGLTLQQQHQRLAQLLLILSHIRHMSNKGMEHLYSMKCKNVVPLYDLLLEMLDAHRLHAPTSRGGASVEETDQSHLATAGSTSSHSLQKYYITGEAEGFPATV
The test can be described thus: ER degradation activity, in-cell western blot analysis in T47D cells. Format: cell-based. The conditions noted are these: 16 hours, Table A does not say which cell line (T47D or MCF7), read-out: Potency (DC50). The method in brief:
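T47D cells grown in DMEM with 10% FBS were treated with compounds for 16 hours at 0.5% DMSO final. ER was detected by in-cell western using 680/800 near-infrared secondary antibodies. Residual ER is given as percent of untreated and DMSO-treated wells set to 100%.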
Take `C[C@@H]1Cc2c([nH]c3ccccc23)[C@@H](c2c(F)cc(N3CCC(CN4CCC5(CC4)CC(N4Cc6cc7c(cc6C4)C(=O)N(C4CCC(=O)NC4=O)C7=O)C5)CC3)cc2F)N1CC(F)F` (stereo partly drawn) [E 132, 6-(7-((1-(4-((1R,3R)-2-(2,2-difluoroethyl)-3-methyl-2,3,4,9-tetrahydro-1H-pyrido[3,4-b]indol-1-yl)-3,5-difluorophenyl)piperidin-4-yl)methyl)-7-azaspiro[3.5]nonan-2-yl)-2-(2,6-dioxopiperidin-3-yl)-6,7-dihydropyrrolo[3,4-f]isoindole-1,3(2H,5H)-dione]: the 50% degradation concentration (DC50) was in the range of 10 to 100 nM.

On to `O=C1CCC(N2C(=O)c3cc4c(cc3C2=O)CN(C(=O)CN2CCC3(CC2)CCN(c2ccc([C@@H]5c6ccc(O)cc6CC[C@@H]5c5ccccc5)cc2F)C3)C4)C(=O)N1` (mixture of isomers) [E 154, Rac-2-(2,6-dioxopiperidin-3-yl)-6-(2-(2-(2-fluoro-4-((1R,2S)-6-hydroxy-2-phenyl-1,2,3,4-tetrahydronaphthalen-1-yl)phenyl)-2,8-diazaspiro[4.5]decan-8-yl)acetyl)-6,7-dihydropyrrolo[3,4-f]isoindole-1,3(2H,5H)-dione], for which the DC50 is over 100 nM.

Turning to `C[C@@H]1Cc2c([nH]c3ccccc23)[C@@H](c2c(F)cc(N3CCC(CN4Cc5cc6c(cc5C4)C(=O)N(C4CCC(=O)NC4=O)C6=O)CC3)cc2F)N1CC(F)F` (stereo partly drawn) [E 89, 6-((1-(4-((1R,3R)-2-(2,2-difluoroethyl)-3-methyl-2,3,4,9-tetrahydro-1H-pyrido[3,4-b]indol-1-yl)-3,5-difluorophenyl)piperidin-4-yl)methyl)-2-(2,6-dioxopiperidin-3-yl)-6,7-dihydropyrrolo[3,4-f]isoindole-1,3(2H,5H)-dione], the DC50 was over 100 nM.

With `C[C@@H]1Cc2c([nH]c3ccccc23)[C@@H](c2c(F)cc(N3CCC4(CCN(CC(=O)N5Cc6cc7c(cc6C5)C(=O)N(C5CCC(=O)NC5=O)C7=O)C4)CC3)cc2F)N1CC(F)F` (stereo partly drawn) [E 62, 6-(2-(8-(4-((1R,3R)-2-(2,2-difluoroethyl)-3-methyl-2,3,4,9-tetrahydro-1H-pyrido[3,4-b]indol-1-yl)-3,5-difluorophenyl)-2,8-diazaspiro[4.5]decan-2-yl)acetyl)-2-(2,6-dioxopiperidin-3-yl)-6,7-dihydropyrrolo[3,4-f]isoindole-1,3(2H,5H)-dione], the DC50 was under 10 nM.

In the case of `O=C1CCC(N2C(=O)c3cc4c(cc3C2=O)CN(CC(=O)N2CCC3(CC2)CCN(c2ccc(C(=C(CCCl)c5ccc(F)cc5)c5ccc(O)cc5)cc2)CC3)C4)C(=O)N1` (stereo not shown) [E 196, 6-(2-(9-(4-(4-chloro-2-(4-fluorophenyl)-1-(4-hydroxyphenyl)but-1-en-1-yl)phenyl)-3,9-diazaspiro[5.5]undecan-3-yl)-2-oxoethyl)-2-(2,6-dioxopiperidin-3-yl)-6,7-dihydropyrrolo[3,4-f]isoindole-1,3(2H,5H)-dione], the half-maximal degradation concentration (DC50) is 10 to 100 nM.

As to `C[C@@H]1Cc2c([nH]c3ccccc23)[C@@H](c2c(F)cc(N3CCCC(CN4CCC(N5Cc6cc7c(cc6C5)C(=O)N(C5CCC(=O)NC5=O)C7=O)CC4)C3)cc2F)N1CC(F)F` (stereo partly drawn) [E 59, 6-(1-((1-(4-((1R,3R)-2-(2,2-difluoroethyl)-3-methyl-2,3,4,9-tetrahydro-1H-pyrido[3,4-b]indol-1-yl)-3,5-difluorophenyl)piperidin-3-yl)methyl)piperidin-4-yl)-2-(2,6-dioxopiperidin-3-yl)-6,7-dihydropyrrolo[3,4-f]isoindole-1,3(2H,5H)-dione], the 50% degradation concentration (DC50) lay within 10 to 100 nM.

On to `C[C@@H]1Cc2cc(O)ccc2[C@@H](c2ccc(N3CCC4(CCN(C(=O)CN5Cc6cc7c(cc6C5)C(=O)N(C5CCC(=O)NC5=O)C7=O)CC4)CC3)cc2)N1CC(F)F` (stereo partly drawn) [E 301, 6-(2-(9-(4-((1R,3R)-2-(2,2-difluoroethyl)-6-hydroxy-3-methyl-1,2,3,4-tetrahydroisoquinolin-1-yl)phenyl)-3,9-diazaspiro[5.5]undecan-3-yl)-2-oxoethyl)-2-(2,6-dioxopiperidin-3-yl)-6,7-dihydropyrrolo[3,4-f]isoindole-1,3(2H,5H)-dione], for which the half-maximal degradation concentration (DC50) lay in the range of 10 to 100 nM.

For the compound `O=C1CCC(N2C(=O)c3cc4c(cc3C2=O)CN(CC(=O)N2CCC(N3CC(Oc5ccc([C@@H]6c7ccc(O)cc7CC[C@@H]6c6ccccc6)cc5)C3)CC2)C4)C(=O)N1` (stereo partly drawn) [E 377, 2-(2,6-dioxopiperidin-3-yl)-6-(2-(4-(3-(4-((1R,2S)-6-hydroxy-2-phenyl-1,2,3,4-tetrahydronaphthalen-1-yl)phenoxy)azetidin-1-yl)piperidin-1-yl)-2-oxoethyl)-6,7-dihydropyrrolo[3,4-f]isoindole-1,3(2H,5H)-dione], the DC50 was in the range of 10 to 100 nM.

In the case of `O=C1CCC(N2C(=O)c3cc4c(cc3C2=O)CN([C@H]2CC[C@@H](C(=O)N3CC(Nc5ccc([C@H]6c7ccc(O)cc7CC[C@H]6c6ccccc6)cc5)C3)CC2)C4)C(=O)N1` (stereo partly drawn) [E 386, 2-(2,6-dioxopiperidin-3-yl)-6-((1R,4s)-4-(3-((4-((1S,2R)-6-hydroxy-2-phenyl-1,2,3,4-tetrahydronaphthalen-1-yl)phenyl)amino)azetidine-1-carbonyl)cyclohexyl)-6,7-dihydropyrrolo[3,4-f]isoindole-1,3(2H,5H)-dione], the DC50 is over 100 nM.

On to `C[C@@H]1Cc2c([nH]c3ccccc23)[C@@H](c2c(F)cc(C3CCC(CN4CC(CN5Cc6cc7c(cc6C5)C(=O)N(C5CCC(=O)NC5=O)C7=O)C4)CC3)cc2F)N1CC(F)F` (stereo partly drawn) [E 283, 6-((1-((4-(4-((1R,3R)-2-(2,2-difluoroethyl)-3-methyl-2,3,4,9-tetrahydro-1H-pyrido[3,4-b]indol-1-yl)-3,5-difluorophenyl)cyclohexyl)methyl)azetidin-3-yl)methyl)-2-(2,6-dioxopiperidin-3-yl)-6,7-dihydropyrrolo[3,4-f]isoindole-1,3(2H,5H)-dione], for which the half-maximal degradation concentration (DC50) was over 100 nM.

Take `C[C@@H]1Cc2cc(O)ccc2[C@@H](c2c(F)cc(N3CC4(CCN(C(=O)CN5Cc6cc7c(cc6C5)C(=O)N(C5CCC(=O)NC5=O)C7)CC4)C3)cc2F)N1CC(C)(F)F` (stereo partly drawn) [E 27, 3-(6-(2-(2-(4-((1S,3R)-2-(2,2-difluoropropyl)-6-hydroxy-3-methyl-1,2,3,4-tetrahydroisoquinolin-1-yl)-3,5-difluorophenyl)-2,7-diazaspiro[3.5]nonan-7-yl)-2-oxoethyl)-1-oxo-3,5,6,7-tetrahydropyrrolo[3,4-f]isoindol-2(1H)-yl)piperidine-2,6-dione]: the DC50 is over 100 nM.

The test is the same for the next values; noted with them: compounds 16 hours, Table A does not say whether T47D or MCF7, read-out: Potency (DC50).
Consider `O=C1CCC(N2Cc3cc4c(cc3C2=O)C(=O)N(C2CCN(CC3CCN(c5ccc([C@@H]6c7ccc(O)cc7CC[C@@H]6c6ccccc6)cc5)CC3)CC2)C4)C(=O)N1` (stereo partly drawn) [E 507, 2-(2,6-dioxopiperidin-3-yl)-6-(1-((1-(4-((1R,2S)-6-hydroxy-2-phenyl-1,2,3,4-tetrahydronaphthalen-1-yl)phenyl)piperidin-4-yl)methyl)piperidin-4-yl)-2,3,5,6-tetrahydropyrrolo[3,4-f]isoindole-1,7-dione], for which the 50% degradation concentration (DC50) was over 100 nM.

`COc1cc([C@H]2CC[C@@H](C(=O)N3CCC(N4Cc5cc6c(cc5C4)C(=O)N(C4CCC(=O)NC4=O)C6=O)CC3)CC2)ccc1[C@@H]1c2[nH]c3ccccc3c2C[C@@H](C)N1CC(F)F` (stereo partly drawn) [E 404, 6-(1-((1S,4s)-4-(4-((1R,3R)-2-(2,2-difluoroethyl)-3-methyl-2,3,4,9-tetrahydro-1H-pyrido[3,4-b]indol-1-yl)-3-methoxyphenyl)cyclohexane-1-carbonyl)piperidin-4-yl)-2-(2,6-dioxopiperidin-3-yl)-6,7-dihydropyrrolo[3,4-f]isoindole-1,3(2H,5H)-dione]: the 50% degradation concentration (DC50) is over 100 nM.
